One assay relates to HFF-1 cells. Put plainly: Collagen gel contraction induced by TGF-β1 in HFF-1 cells. It is filed as cell-based, human. To be noted: HFF-1 cells in collagen gel, TGF-β1 10 ng/ml, 72 hours, FIG. 7. The text has this:
In order to confirm the effect of the compounds of Synthetic examples on differentiation of fibroblasts into myofibroblasts, the inhibitory effect of the compounds of Synthetic examples on the phenomenon of contraction of gel induced by interaction of human foreskin fibroblasts (HFF-1, ATCC) and collagen was observed.
The mixed solution of the HFF-1 cells and collagen (bovine type I collagen) prepared at a concentration of 3×10^6 cells/ml was aliquoted in a 24 well plate, respectively, and then cultured under the condition of 5% CO2, 37° C. for 1 hour to induce gel polymerization. Then, after suspending the gel attached on the plate from the plate using a spoon, a medium comprising TGF-β1 and Synthetic example compounds was added to each well. After culturing for 72 hours, the Synthetic example compounds were treated by 10, 20, 30, 40, 60 and 80 μM to measure the size of the gel, and thereby, the degree of contraction of the gel by drug treatment was confirmed.

In assay [1] the test system is HL-60 cells differentiated into neutrophil cells. Kind of assay: ROS production induced by PMA in HL-60 cells differentiated into neutrophil cells. The note with it: Homo sapiens, 0.5 h; differentiated HL-60 cells, compounds 0.5 uM (0.5 mM in the source) for 30 minutes, 200 nM PMA, L-012 luminescence. The format is cell-based. The text has this: (§1) In order to confirm the effect of the compounds of Synthetic examples on ROS production from fibroblasts and specific substrate cells, ROS production was induced by stimulation of PMA (phorbol 12-myristate 13-acetate), TGF-β1, palmitate or high concentration-glucose, or the like, in HL-60 cells differentiated into neutrophil cells by DMSO treatment, NHLF (normal human lung fibroblast, Lonza), LX-2 (human hepatic stellate cells, Sigma), ARPE19 (human retinal pigment epithelial cell, ATCC), and KEL-FIB (Keloid fibroblast, ATCC) cells, and under this condition, the inhibitory effect of ROS production of the compounds of Synthetic Examples was observed.
HL-60 cells (human leukemia cells, ATCC) were suspended in a medium containing 1.25% DMSO (RPMI+10% FBS) and cultured under the condition of 5% CO2, 37° C. for 6 days, thereby inducing differentiation into neutrophil cells. […] Then, to each well comprising the cells and drug, 200 nM PMA was treated to induce ROS production, and such ROS production was measured by observing the luminescence level of each well using 100 μM L-012.

The subject of the next assay is IL-6. Put plainly: Expression of IL-6 in pancreatic cancer associated fibroblasts (ELISA). To be noted: P.CAF cells, 48 hours treatment, FIG. 5. The format is cell-based, human. The protocol:
(§2) In order to confirm the effect of the compounds of Synthetic examples of the present invention on inflammation reaction in cancer associated fibroblasts, whether the expression of IL6 and IL8 was inhibited by the compounds of Synthetic examples in pancreatic cancer associated fibroblasts (P.CAF) was observed.
(§3) After inoculating 1.5×10^5 cells in a 6 well plate and then culturing in P.CAF complete media for 48 hours, the compounds of Synthetic examples were treated by 10, 20, 30, 40, 60 and 80 μM for 48 hours according to each condition, and then the expression of IL-6 and IL-8 was confirmed by performing ELISA with Quantkine ELISA kit (R&D systems) as follows.
(§4) 100 μl of the culture solution in which the compounds of Synthetic examples were treated for 48 hours was added to the microplate strip for analysis including a 100 μl assay diluent and left at a room temperature for 2 hours and then the contents were removed, and then it was washed with 400 μl wash buffer 4 times. 200 μl of a human IL-6 or IL-8 conjugate was added and left at a room temperature for 2 hours and then the contents were removed, and then it was washed with 400 μl wash buffer 4 times. 200 μl of substrate solution was added and left at a room temperature for 20 minutes and then 50 μl of stop solution was added, and the absorbance at a wavelength of 450 nm was measured within 30 minutes to confirm the expression level of IL-6 and IL-8.
On the technique in general: In an ELISA, binding on a coated surface is turned into a signal by an enzyme label.

Another assay relates to IL-8. Put plainly: Expression of IL-8 in pancreatic cancer associated fibroblasts (ELISA). The format is cell-based, human. To be noted: P.CAF cells, 48 hours treatment, FIG. 6. How it is done: as §2, §3, §4
The next assay deals with N27 cells. Put plainly: ROS production induced by alpha-synuclein preformed fibril (PFF) in N27 cells. The format is cell-based, rat. To be noted: 0.001 μM compound, 24 hours, CellROX-Deep Red, FIG. 2. How it is done: In order to confirm the effect of the compounds of Synthetic examples on ROS production from dopaminergic neural cells, ROS production was induced by alpha-synuclein preformed fibril (PFF) stimulation on N27 (rat dopaminergic neural cell, Sigma) cells and under this condition, the inhibitory effect of ROS production of the compounds of Synthetic examples was observed.
The N27 cells were cultured in RPMI medium containing 10% FBS, 1 μM angiotensin II, and the prepared cells were aliquoted at a concentration of 4×10^3 cells/well on a 6-well plate. The ROS production stimulus, PFF (preformed fibril) and the compounds of Synthetic examples were treated to the cells. After treating the compounds of Synthetic examples for 24 hours, fluorescence of each well was measured using CellROX-Deep Red reagent, thereby confirming the degree of ROS production.

A further assay deals with NHLF cells. Put plainly: ROS production induced by PMA in NHLF cells. The format is cell-based, human. The note with it: FIG. 1.
Description: as §1
(§5) The NHLF (normal human lung fibroblast, Lonza), LX-2 (human hepatic stellate cells, Sigma), ARPE19 (human retinal pigment epithelial cell, ATCC), KEL-FIB (keloid fibroblast, ATCC) cells were suspended in a culture medium containing 10% FBS and aliquoted on a 96 well plate and then cultured under the condition of 5% CO2, 37° C. for 24 hours. After pre-treating the compounds of Synthetic examples at a concentration of 10, 20, 30, 40, 60 and 80 μM for 30 minutes to 1 hour, the ROS stimulus was treated to each well containing the cells and drug. After additional culturing for 48 hours, the ROS production level was confirmed using L-012 or DCF-DA.

A further assay relates to LX-2 cells. Put plainly: ROS production induced by PMA in LX-2 cells. The format is cell-based, human. To be noted: FIG. 1.
Description: as §1, §5

The inhibition is the share of the control response that was lost under treatment. The low end stands for little suppression, the high end for strong suppression.

Structures are written as SMILES.

As to `CN(Cc1ccc(F)cc1F)C1CCc2nn(-c3ccccn3)c(O)c2C1` (centres unmarked) [Compound 5, 5-[(2,4-Difluorobenzyl)methylamino]-2-(pyridin-2-yl)-4,5,6,7-tetrahydro-2H-indazol-3-ol], in the assay with HFF-1 cells, the “contraction of the gel induced by TGF-β1” value is reported as “effectively inhibited”. This compound also showed an inhibition at 0.5 µM in assay [1] of more than 70%. In addition, in the assay with IL-6, the “IL-6 expressed in P.CAF” value is listed as “effectively inhibited”. The “IL-8 expressed in P.CAF” value in the assay with IL-8 is on record as “effectively inhibited”.

As to `CN(Cc1ccc(S(C)(=O)=O)cc1)C1CCc2nn(-c3ccccn3)c(O)c2C1` (centres unmarked) [Compound 12, 5-[(4-Methanesulfonylbenzyl)methylamino]-2-(pyridin-2-yl)-4,5,6,7-tetrahydro-2H-indazol-3-ol], in the assay on HFF-1 cells, the “contraction of the gel induced by TGF-β1” value is “effectively inhibited”. In assay [1], this compound had an inhibition at 0.5 µM of more than 70%. Moreover, in the assay with N27 cells, the “ROS production induced by PFF” value was “effectively inhibited”.

Turning to `COc1cccc(CN(C)C2CCc3nn(-c4ccccn4)c(O)c3C2)c1` (centres unmarked) [Compound 13, 5-[(3-Methoxybenzyl)methylamino]-2-(pyridin-2-yl)-4,5,6,7-tetrahydro-2H-indazol-3-ol], the “contraction of the gel induced by TGF-β1” value in the assay on HFF-1 cells is listed as “effectively inhibited”. In addition, the inhibition at 0.5 µM in assay [1] is more than 70%.

For the compound `Oc1c2c(nn1-c1ccccn1)CCC(N1CCCCC1)C2` (centres unmarked) [Compound 14, 5-Piperidin-1-yl-2-(pyridin-2-yl)-4,5,6,7-tetrahydro-2H-indazol-3-ol], in the assay on HFF-1 cells, the “contraction of the gel induced by TGF-β1” value is given as “effectively inhibited”. The same compound registered an inhibition at 0.5 µM in assay [1] of 50 to 70%.

For the compound `CN1CCN(C2CCc3nn(-c4ccccn4)c(O)c3C2)CC1` (centres unmarked) [Compound 16, 5-(4-Methylpiperazin-1-yl)-2-(pyridin-2-yl)-4,5,6,7-tetrahydro-2H-indazol-3-ol], the “contraction of the gel induced by TGF-β1” value with HFF-1 cells was “effectively inhibited”. In assay [1], this compound yielded an inhibition at 0.5 µM of more than 70%. The “ROS production induced by PFF” value in the assay on N27 cells was “effectively inhibited”.

Compound `OCCOCCN1CCN(C2CCc3nn(-c4ccccn4)c(O)c3C2)CC1` (centres unmarked) [Compound 17, 5-{4-[2-(2-hydroxyethoxy)-ethyl]-piperazin-1-yl}-2-pyridin-2-yl-4,5,6,7-tetrahydro-2H-indazol-3-ol] had an inhibition at 0.5 µM in assay [1] of more than 70%. Moreover, the “ROS production induced by PMA” value with NHLF cells and in the assay on LX-2 cells was “inhibited” in each case.

Turning to `CN(Cc1cccc(S(C)(=O)=O)c1)C1CCc2nn(-c3ccccn3)c(O)c2C1` (centres unmarked) [Compound 23, 5-[Methyl(3-methylsulfonylbenzyl)amino]-2-(pyridin-2-yl)-4,5,6,7-tetrahydro-2H-indazol-3-ol], in the assay on HFF-1 cells, the “contraction of the gel induced by TGF-β1” value is given as “effectively inhibited”. This compound gave an inhibition at 0.5 µM in assay [1] of 50 to 70%. Besides, the “IL-6 expressed in P.CAF” value in the assay on IL-6 is recorded as “effectively inhibited”. Further, in the assay with IL-8, the “IL-8 expressed in P.CAF” value is given as “effectively inhibited”.

The compound `Oc1c2c(nn1-c1ccccn1)CCC(Nc1ccc(F)c(F)c1)C2` (centres unmarked) [Compound 32, 5-(3,4-Difluorophenylamino)-2-(pyridin-2-yl)-4,5,6,7-tetrahydro-2H-indazol-3-ol] showed an inhibition at 0.5 µM in assay [1] of 50 to 70%. Moreover, in the assay on N27 cells, the “ROS production induced by PFF” value is “effectively inhibited”.

Regarding `CN(C1CCc2nn(-c3ccccn3)c(O)c2C1)C1CCCc2cccnc21` (centres unmarked) [Compound 33, 5-[Methyl(5,6,7,8-tetrahydroquinolin-8-yl)amino]-2-(pyridin-2-yl)-4,5,6,7-tetrahydro-2H-indazol-3-ol], in the assay on HFF-1 cells, the “contraction of the gel induced by TGF-β1” value was “effectively inhibited”. The compound further had an inhibition at 0.5 µM in assay [1] of 50 to 70%. Besides, in the assay with IL-6, the “IL-6 expressed in P.CAF” value is “effectively inhibited”. Further, the “IL-8 expressed in P.CAF” value in the assay on IL-8 is given as “effectively inhibited”.

Regarding `O=C(C1CC1)N1CCN(C2CCc3nn(-c4ccccn4)c(O)c3C2)CC1` (centres unmarked) [Compound 38, Cyclopropyl[4-(3-hydroxy-2-(pyridin-2-yl)-4,5,6,7-tetrahydro-2-indazol-5-yl)piperazin-1-yl]methanone], the “contraction of the gel induced by TGF-β1” value in the assay on HFF-1 cells is given as “effectively inhibited”. The inhibition at 0.5 µM in assay [1] is more than 70%. The “IL-6 expressed in P.CAF” value in the assay with IL-6 is “effectively inhibited”. Also, the “IL-8 expressed in P.CAF” value in the assay on IL-8 is on record as “effectively inhibited”.

As for `CN(Cc1cc2ccccc2cn1)C1CCc2nn(-c3ccccn3)c(O)c2C1` (centres unmarked) [Compound 62, 5-[(Isoquinolin-3-ylmethyl)methylamino]-2-(pyridin-2-yl)-4,5,6,7-tetrahydro-2H-indazol-3-ol], the “contraction of the gel induced by TGF-β1” value in the assay on HFF-1 cells is on record as “effectively inhibited”. The compound also had an inhibition at 0.5 µM in assay [1] of more than 70%. In addition, the “IL-6 expressed in P.CAF” value in the assay with IL-6 is “effectively inhibited”. For the same compound, the “IL-8 expressed in P.CAF” value in the assay with IL-8 is on record as “effectively inhibited”.

Take `CN(Cc1ccc2ncccc2c1)C1CCc2nn(-c3ccccn3)c(O)c2C1` (centres unmarked) [Compound 63, 5-[Methyl(quinolin-6-ylmethyl)amino]-2-(pyridin-2-yl)-4,5,6,7-tetrahydro-2H-indazol-3-ol]: the “contraction of the gel induced by TGF-β1” value in the assay with HFF-1 cells is “effectively inhibited”. In addition, the inhibition at 0.5 µM in assay [1] is more than 70%. For the same compound, in the assay with IL-6, the “IL-6 expressed in P.CAF” value is given as “effectively inhibited”. Moreover, the “IL-8 expressed in P.CAF” value with IL-8 is “effectively inhibited”.

In turn, `CN1CCN(C2CCc3nn(-c4ccc(C(F)(F)F)cn4)c(O)c3C2)CC1` (centres unmarked) [Compound 82, 5-(4-Methylpiperazin-1-yl)-2-(5-(trifluoromethyl)pyridin-2-yl)-4,5,6,7-tetrahydro-2H-indazol-3-ol] came in with an inhibition at 0.5 µM in assay [1] of 50 to 70%. For the same compound, the “ROS production induced by PFF” value in the assay on N27 cells is “effectively inhibited”.

For `COc1ccc(N2CCN(C3CCc4nn(-c5ccccn5)c(O)c4C3)CC2)cc1` (centres unmarked) [Compound 129, 5-(4-(4-Methoxyphenyl)piperazin-1-yl)-2-(pyridin-2-yl)-4,5,6,7-tetrahydro-2H-indazol-3-ol], the inhibition at 0.5 µM in assay [1] is more than 70%.

The compound `CC(=O)c1ccc(N2CCN(C3CCc4nn(-c5ccccn5)c(O)c4C3)CC2)cc1` (centres unmarked) [Compound 130, 1-(4-(4-(3-Hydroxy-2-(pyridin-2-yl)-4,5,6,7-tetrahydro-2H-indazol-5-yl)piperazin-1-yl)phenyl)ethan-1-one] gave an inhibition at 0.5 µM in assay [1] of more than 70%.

In assay [1], `CS(=O)(=O)c1ccc(N2CCN(C3CCc4nn(-c5ccccn5)c(O)c4C3)CC2)cc1` (centres unmarked) [Compound 131, 5-(4-(4-(Methylsulfonyl)phenyl)piperazin-1-yl)-2-(pyridin-2-yl)-4,5,6,7-tetrahydro-2H-indazol-3-ol] registered an inhibition at 0.5 µM of more than 70%.

Values taken from patent US11999718B2, “Pyrazole derivatives” (Aptabio Therapeutics Inc., priority 2021, dated 2024).
